Experimental data from patent US11465989B2, “Guanidine compounds and use thereof” (IMMUNOMET THERAPEUTICS INC., priority 2014, dated 2022).
Where a name gives a salt, the structure may show the parent alone.

Test system: A549 cells
Assay: Inhibition of OCR (XF Analyzer)
Type: cell-based
Conditions: Homo sapiens, A549, 24 h
Source text: The electron transfer complex in mitochondria is composed of 5 complexes. The complex I accept electrons from NADH produced from glycolysis and TCA cycle and the electrons move to complex […] and the electron is finally transferred to O2 and water molecule is generated. During the electron transfer, proton gradient is generated and the chemical gradient is a driving source to synthesize ATP at complex V. The mitochondrial inhibition of complex I indirectly assessed by measuring the oxygen consumption rate (OCR) at complex IV. […] The solution outside of cells becomes acidic (lower pH) as lactate is transported to outside of cells. OCR and Extracellular acidification rate (ECAR) are determined by XF Analyzer (Seahorse Biosciences).
A549 cells were purchased from American Type Tissue Culture Collection ([…]) and cultured in RPMI 1640 supplied with 10% fetal bovine serum (FBS) and antibiotic-antimycotic (Lifetech, CA). A549 cells were separated with 0.5% Trypsin-EDTA and 3,000 cells were plated on 1 mg/ml poly-D-lysine (Sigma, P6407) coated XF 96 well […]. A549 cells were allowed to adhere to the wells for 24 hours under the condition of temperature, 37° C. and 5% CO2 The sensor cartridge of XF Analyzer was soaked in 200 Ad of Calibrant solution (Seahorse, MA) in a clear 96-well plate at 37° C. for 24 hours. The compounds of the present invention were diluted with RPMI 1640 without FBS, transferred to A549 cells on XF 96 well plate, and incubated further for 23 hours at 37° C. and 5% CO2. After incubation, the compound solution was exchanged with pre-warmed and pH adjusted (pH7.4) XF assay media (Seahorse) supplied with 15 mM D-glucose (Sigma), 15 mM sodium pyruvate (Lifetechnologies, CA) and 4 mM L-glutamine (Lifetechnologies, CA). The compounds of present invention were prepared in XF Assay media and added to the assay plate. The assay plate was equilibrated in XF Analyzer for 1 hour, and the reading were started by sensor cartridge. The cytotoxicity assay was followed using Cyquant (Lifetechnologies, CA) in order to calibrate the inhibition with cytotoxicity of compounds. The concentrations of the compounds were tested at […] and IC50 value was obtained from the inhibited values. That is, from OCR inhibition values at each concentration of the compound, IC50 was calculated according to Prism's dose response curve fitting.
In Table 1, the levels of OCR IC50 are evaluated by the following.

## N=C(N)NC(=N)NCCc1ccc(Cl)c(Cl)c1 [Example 1, N-1-(3,4-dichloro)phenethylbiguanide hydrochloride]
  IC50: > 5 µM
